Here are results for 10 molecules from US20090253709A1 (NATIONAL DEFENSE MEDICAL CENTER, priority 2008, published 2009).

Read-outs that look alike come from different tables or passages of the source.

By melting point is commonly meant the temperature of the solid-liquid transition.

The subject of data set [1] is hTERT expression. Kind of data set: SEAP assay in hTERT-BJ1-PTERT(3.4)-SEAP cells. The class given is cell-based. The conditions noted are these: Homo sapiens, read-out: SEAP (Inhibition μM ± SD); for activity at 1 µM: compound concentration 1 μM. On the procedure:
A total of 2×10^3 hTERT-BJ1-PTERT(3.4)-SEAP cells were seeded in the 96-well cell culture plate, and incubated with DMEM (GIBCO®)/glucose mixture and Medium 199 (GIBCO®)/10% FBS/1 mM sodium pyruvate (GIBCO®)/4 mM L-glutamine (GIBCO®) mixture at a ratio of 4:1 at 37° C. for 24 hours. When the cells were attached in the bottom of the well, the seriously-diluted compounds with different concentrations ([…]) were treated with the cells for 48 hours, and the PTERT(3.4)-SEAP cells without drug treatment were being the control. After 48 hours of drug treatment, the cultured medium were collected for performing the analysis of SEAP activity. The cells were washed with 1×PBS once immediately, and the MTT assay was performed to compare the compounds with the relative toxicity or the influence to the proliferation and activity.
The cellular medium after the cellular incubation was transferred into the eppondorf tube, and the activity of endogeneous alkaline phosphatase was inactivated at 65° C. for 10 minutes. After centrification, the mixture was obtained by mixing 50 μl of the supernatant with the equal volume of the SEAP buffer. The mixture and the substrate (120 mM of p-nitrophenylphosphate) were preheated at 37° C. for 10 minutes respectively, and the mixture and the substrate were mixed at a ratio of 1:10 and reacted at 37° C. The absorbance of visible light at 405 nm was determined at the appropriate time intervals, and the enzymatic activity of SEAP was represented by the speed of the increasing absorbance at 405 nm.

Data set [2] in a line: MTT assay in BJ1 cells. The class given is cell-based. The conditions noted are these: human, hTERT-BJ1-PTERT(3.4)-SEAP cells, BJ1, read-out: MTT (Inhibition μM ± SD); for viability at 48 h, 1 µM: compound concentration 1 μM; for viability at 48 h, 10 µM: compound concentration 10 μM; for viability at 48 h, 100 µM: compound concentration 100 μM. As for the experimental part:
A total of 2×10^3 […] cells were seeded in the 96-well cell culture plate, and incubated with DMEM (GIBCO®)/glucose mixture and Medium 199 (GIBCO®)/10% FBS/1 mM sodium pyruvate (GIBCO®)/4 mM L-glutamine (GIBCO®) mixture at a ratio of 4:1 at 37° C. for 24 hours. […] After 48 hours of drug treatment, the cultured medium were collected for performing the analysis of SEAP activity. The cells were washed with 1×PBS once immediately, and the MTT assay was performed to compare the compounds with the relative toxicity or the influence to the proliferation and activity. Mitochondria is the place for cellular respiration, and there are many reductive reactions catalyzed by dehydrogenases. MTT is a water-soluble yellow compound, and the […] will be formed after reduction. This crystal can be dissolved in the organic solvent, and has high absorbance at the wavelength of 570 nm. The higher cellular activity or more cell numbers, the more generated crystal violets. Therefore, the cellular activity and cell number can be obtained by the MTT assay. MTT solution was prepared by dissolving MTT powder in PBS solution to achieve 5 mg/ml, filtrated and stored at 4° C. Lysis buffer contained 20% (w/v) of SDS in 50% of N,N-dimethylformamide (DMF, Riedel-deHaën). After the cells were incubated in the 96-well culture plate, the original medium was discarded, 100 μl of the fresh serum-free medium per well and 25 μl of MTT solution per well were added in respectively, and the cells were further incubated in the CO2 incubator at 37° C. for 4 hours. Then, 100 μl of lysis buffer per well was added in and incubated overnight in the CO2 incubator at 37° C. The absorbance at 570 nm was determined by the ELISA reader.
(In general: Tetrazolium assays rely on reduction of a dye to a coloured formazan, in cell work by metabolically active cells.)

The mark [3] stands for this setting: BJ1, compound concentration 10 μM.
The mark [4] stands for this setting: BJ1, compound concentration 100 μM.

Molecule `O=C1c2ccc([N+](=O)[O-])cc2C(=O)c2cc([N+](=O)[O-])ccc21` [Compound 1, 2,7-dinitroanthraquinone] showed a melting point of 284 °C. Further, in data set [1] (BJ1), the activity at 1 µM came to 55 ± 21%. Also, the activity at 10 µM in data set [1] (setting [3]) amounted to 60 ± 35%. The activity at 100 µM in data set [1] (setting [4]) was found to be 65 ± 23%. Further, in data set [2], the viability at 48 h, 1 µM turned out to be 91 ± 2%; the viability at 48 h, 10 µM amounted to 91 ± 2%; the viability at 48 h, 100 µM amounted to 86 ± 3%.

The molecule `Nc1ccc2c(c1)C(=O)c1cc(N)ccc1C2=O` [Compound 2, 2,7-Diaminoanthraquinone] registered a melting point of 342 °C. For the same molecule, in data set [2], the viability at 48 h, 1 µM amounted to 95 ± 2%; the viability at 48 h, 10 µM is 83 ± 1%; the viability at 48 h, 100 µM was found to be 80 ± 2%.

`O=C(CCl)Nc1ccc2c(c1)C(=O)c1cc(NC(=O)CCl)ccc1C2=O` [Compound 3, 2,7-bis(chloroacetamido)anthraquinone] showed a melting point of 286 °C. In data set [1], the activity at 10 µM came out at 69 ± 34% and the activity at 100 µM was 135 ± 21%. For the same molecule, in data set [2], the viability at 48 h, 1 µM was found to be 105 ± 2%; the viability at 48 h, 10 µM came out at 89 ± 3%; the viability at 48 h, 100 µM is 88 ± 2%.

Regarding `CCN(CC)CC(=O)Nc1ccc2c(c1)C(=O)c1cc(NC(=O)CN(CC)CC)ccc1C2=O` [Compound 4, 2,7-Bis[2-(diethylamino)acetamido]anthraquinone], the melting point came out at 241 °C. In addition, the activity at 1 µM in data set [1] (BJ1) stood at 26 ± 4%. In addition, the activity at 10 µM in data set [1] (setting [3]) was found to be 131 ± 57%. Besides, in data set [1] (setting [4]), the activity at 100 µM came out at 116 ± 34%. Moreover, in data set [2], the viability at 48 h, 1 µM came out at 116 ± 4%; the viability at 48 h, 10 µM came to 67 ± 2%; the viability at 48 h, 100 µM is 50 ± 1%.

`CCCCNCC(=O)Nc1ccc2c(c1)C(=O)c1cc(NC(=O)CNCCCC)ccc1C2=O` [Compound 5, 2,7-Bis[2-(butylamino)acetamido]anthraquinone] came in with a melting point of 125 °C. The activity at 1 µM in data set [1] (BJ1) turned out to be 27 ± 18%. Moreover, in data set [1] (setting [3]), the activity at 10 µM came out at 24 ± 24%. Besides, the activity at 100 µM in data set [1] (setting [4]) came out at 80 ± 14%. Also, in data set [2], the viability at 48 h, 1 µM stood at 103 ± 1%; the viability at 48 h, 10 µM turned out to be 41 ± 1%; the viability at 48 h, 100 µM was determined as 43 ± 1%.

Regarding `O=C(CN1CCCCC1)Nc1ccc2c(c1)C(=O)c1cc(NC(=O)CN3CCCCC3)ccc1C2=O` [Compound 7, 2,7-Bis[2-(piperidino)acetamido]anthraquinone], the melting point was 243 °C. Besides, in data set [1] (BJ1), the activity at 1 µM was found to be 118 ± 16%. In data set [1] (setting [3]), the activity at 10 µM came to 121 ± 3%. For the same molecule, the activity at 100 µM in data set [1] (setting [4]) was 103 ± 5%. Besides, in data set [2], the viability at 48 h, 1 µM was determined as 89 ± 1%; the viability at 48 h, 10 µM amounted to 78 ± 3%; the viability at 48 h, 100 µM is 22 ± 2%.

`CCCNCC(=O)Nc1ccc2c(c1)C(=O)c1cc(NC(=O)CNCCC)ccc1C2=O` [Compound 9, 2,7-Bis[2-(propylamino)acetamido]anthraquinone] gave a melting point of 143 °C. Also, in data set [2], the viability at 48 h, 1 µM was 96 ± 3%; the viability at 48 h, 10 µM worked out at 44%; the viability at 48 h, 100 µM was found to be 42 ± 1%.

In the case of `O=C(CN1CCNCC1)Nc1ccc2c(c1)C(=O)c1cc(NC(=O)CN3CCNCC3)ccc1C2=O` [Compound 12, 2,7-Bis[2-(piperazino)acetamido]anthraquinone], the melting point turned out to be 173 °C. Moreover, in data set [2], the viability at 48 h, 1 µM is 88 ± 2%; the viability at 48 h, 10 µM came to 85 ± 15%; the viability at 48 h, 100 µM stood at 76 ± 2%.

Molecule `O=C(CCCl)Nc1ccc2c(c1)C(=O)c1cc(NC(=O)CCCl)ccc1C2=O` [Compound 15, 2,7-Bis(3-chloropropionamido)anthraquinone] registered a melting point of 281 °C. In data set [2], the viability at 48 h, 1 µM turned out to be 77 ± 2%; the viability at 48 h, 10 µM came to 65 ± 1%; the viability at 48 h, 100 µM was 39 ± 1%.

As to `CCCNCCC(=O)Nc1ccc2c(c1)C(=O)c1cc(NC(=O)CCNCCC)ccc1C2=O` [Compound 21, 2,7-Bis[3-(propylamino)propionamido]anthraquinone], the activity at 10 µM in data set [1] (setting [3]) was found to be 133 ± 48%. The activity at 100 µM in data set [1] (setting [4]) is 217 ± 40%. Also, in data set [2], the viability at 48 h, 1 µM was 75 ± 1%; the viability at 48 h, 10 µM was 65 ± 2%; the viability at 48 h, 100 µM stood at 38 ± 2%.
